Experimental data: patent publication US7838511B2, “Compositions and methods for treating, preventing and/or ameliorating cancers, the onset of cancers or the symptoms of cancers” (The Board of Regents of the University of Texas System, priority 2003, dated 2010)

Key:
[1] = tested on: MCF-7 breast cancer cells; assay: MCF-7 breast cancer cell growth / cell number (MTT assay); format: cell-based; settings: for Cell number (% control): mean ± SEM
Experimental: Using MCF-7 breast cancer cells grown in culture, a dose-response to aspirin (1.25 to 20 mM) was performed initially. After 48 hours of exposure to the various aspirin (acetyl salicylic acid, ASA) concentrations, mitochondrial 3-(4,5-dimethylthiazol-2-yl)-2,5-diphenyltetrazolium bromide (MTT) assays were performed. The MTT assay produces a measure of cell number and is used to monitor growth or inhibition of growth of the MCF-F breast cancer cells, i.e., measure the relative growth inhibitor activity of the compositions.
To test the relative growth inhibitor activity of phospholipid associated aspirin (PC-ASA) preparations, PC-ASA preparations were made having ASA concentrations that gave no more than 50% inhibition of growth (e.g., 2.5 and 5 mM) as shown in FIG. 2. In this example and in all subsequent examples, cell growth was assessed by measuring mitochondrial 3-(4,5-dimethylthiazol-2-yl)-2,5-diphenyltetrazolium bromide (MTT) activity. Those concentration of ASA were chosen so that any PC effects could be readily observed. After the preparation of the PC-ASA preparation, MCF-7 breast cancer cells were exposed for 48 hours to either ASA or a PC-ASA having the same ASA concentration.
MCF-7 breast cancer cells were grown in culture and exposed to aspirin (acetyl salicylic acid, ASA) and PC-ASA at equimolar concentrations. An assay was performed to estimate cell number.

[2] = tested on: MCF-7 breast cancer cells; assay: MCF-7 DNA synthesis (thymidine incorporation into cellular DNA); format: cell-based; settings: 5 mM, mean ± SEM
Experimental: Studies were further performed to determine the mechanism by which ASA and PC-ASA reduced cell number. MCF-7 cells were again grown in the absence or presence of ASA and PC-ASA, and cell proliferation was assessed by measurement of titriated thymidine incorporation into cellular DNA.

[3] = tested on: SW-480 colon cancer cell line; assay: SW-480 colon cancer cell number; format: cell-based; settings: mean ± SEM
Experimental: (§1) PC-NSAIDs were also tested on another type of cancer, a colon cancer cell line, SW-480.

[4] = tested on: SW-480 colon cancer cell line; assay: SW-480 colon cancer cell DNA synthesis; format: cell-based; settings: mean ± SEM
Experimental: as §1

[5] = tested on: Leiomyosarcoma of the bladder; assay: Bladder cancer (leiomyosarcoma) in a cat, ultrasonographic follow-up; format: in vivo, domestic cat; settings: assessed by ultrasound
Experimental: To confirm that the PC-NSAIDs also have anti-cancer activity in vivo, a study has been performed on a domestic cat. As summarized in Table 3, the animal was diagnosed in December of 2003 with Leiomyosarcoma of the bladder, a particularly aggressive form of cancer.
The cat was treated surgically for resection of the tumor and was then placed on standard Vincristine chemotherapy for three weeks. […] Eventually, the tumor began to grow again and a treatment of lecithin combined with an NSAID, piroxicam, was begun. […] The cat is continuing to be treated with PC-piroxicam as of this filing.

[6] = tested on: MCF-7 cells; assay: Lactate dehydrogenase (LDH) release (necrosis) of MCF-7 cells; format: cell-based; settings: 0.6 mM, 5 hours; FIG. 4
Experimental: The growth inhibitor activity of the PC-ASA preparations on MCF-7 cells could be through increased apoptosis or necrosis or inhibition of cell proliferation. To differentiate between the first two possibilities, the effect of the PC-ASA preparations on release of the cytosolic enzyme lactate dehydrogenase (LDH) as a measure of necrosis were performed. For this study, MCF-7 cells were exposed to 2.5 and 5 mM ASA or PC-ASA preparations for 48 hours, as before. The media was collected and assayed for LDH activity (the assay is a kit available from Sigma Chemical Co., St. Louis, Mo.). To act as a positive control, some cells were exposed to a bile acid, 0.6 mM sodium deoxycholate (DOC), for 5 hours before LDH assay. […] Yet the ASA and PC-ASA preparations clearly reduce the number of MCF-7 cells at these concentrations. The most likely explanation for these findings is that the NSAIDs are inducing apoptosis rather than necrosis. This possibility is consistent with reports in the literature (see, e.g., Xiaojun L, Xie W, Reed D, Bradshaw W S, Simmons D L. Nonsteroidal antiinflammatory drugs cause apoptosis and induce cyclooxygenases in chicken embryo fibroblasts. Proc Natl Acad Sci USA 1995; 92:7961-7965.). Another possibility is that the PC-NSAID act by inhibiting cell proliferation.

Row | Compound | Cell number (% control) ([1]; MCF-7, 5 mM) | DNA synthesis (% control) [2] | Cell number (% control) ([3]; 5 mM) | DNA synthesis (% control) ([4]; 5 mM) | Cell number (% control) ([3]; 1 mM) | DNA synthesis (% control) ([4]; 1 mM) | also measured
1 | CC(=O)Oc1ccccc1C(=O)O [ASA, acetyl salicylic acid] | 55 ± 3 % Control | 85 ± 8 % Control | 68 ± 3 % control | 102 ± 4 % control | – | – | inhibition of growth ([1]; ASA 2.5 and 5 mM, MTT, FIG. 2): no more than 50%; ASA concentration with inhibitor effect on growth of the cells ([1]; MTT assay, 48 hours exposure, dose-response 1.25 to 20 mM, FIG. 2): ≥ 2.5 mM
2 | CC(C)Cc1ccc(C(C)C(=O)O)cc1 (stereo not drawn) [IBU, ibuprofen] | – | – | – | – | 81 ± 2 % control | 79 ± 1 % control | –
3 | CC[C@]1(O)C[C@H]2CN(CCc3c([nH]c4ccccc34)[C@@](C(=O)OC)(c3cc4c(cc3OC)N(C=O)[C@H]3[C@@](O)(C(=O)OC)[C@H](OC(C)=O)[C@]5(CC)C=CCN6CC[C@]43[C@@H]65)C2)C1 [Vincristine] | – | – | – | – | – | – | effect on tumor growth (in words) [5]: did not stop the remaining tumor growth
4 | phosphatidylcholine [PC] | 114 ± 3 % Control | 41 ± 1 % Control | 106 ± 7 % control | 65 ± 4 % control | 106 ± 13 % control | 97 ± 5 % control | inhibiting the growth of the breast cancer cells (in words) ([1]; 2.5 and 5 mM, 48 hours, MTT, FIG. 3): did not adversely affect the growth of the cells; inhibiting the growth of the breast cancer cells (in words, Table 1) ([1]; MCF-7, 5 mM, equimolar): not effective at inhibiting the growth of the cells
5 | sodium deoxycholate [DOC] | – | – | – | – | – | – | LDH release (necrosis), positive control [6]: caused the release of cellular LDH
